According to patent publication US9233979B2, “Compounds that are ERK inhibitors” (Merck Sharp & Dohme Corp., priority 2012, dated 2016):
Read-outs that look alike come from different tables or passages of the source.

Target: phosphorylated active hERK2 enzyme (Homo sapiens (Human), UniProt P28482)
Test: Active Human ERK2 (hERK2) Activity Assay (IMAP-FP)
Format: biochemical
Conditions: 10 point titration, read-out: AERK2 IC50
Experimental: Assays Active Human ERK2 (hERK2) Activity Assay:
Activated ERK2 activity was determined in an IMAP-FP assay (Molecular Devices). […] The final reaction in each well of 25 μL consists of 0.5 nM hERK2, 900 nM unlabeled peptide, 80 nM labeled-peptide, and 30 μM ATP. Phosphorylation reactions were allowed to proceed for 60 minutes and were immediately quenched by the addition of 60 μL IMAP detection beads (1:1000 dilutions) in IMAP binding buffer (Molecular Devices) with 24 mM NaCl. Plates were read on EnVision reader after 60 minutes binding equilibration using Fluorescence Polarization protocol (Perkin Elmer).

[1] = Table 6, 0.5 nM hERK2, 30 μM ATP
[2] = Table 5, 0.5 nM hERK2, 30 μM ATP

phosphorylated active hERK2 enzyme, sequence (P28482 whole entry): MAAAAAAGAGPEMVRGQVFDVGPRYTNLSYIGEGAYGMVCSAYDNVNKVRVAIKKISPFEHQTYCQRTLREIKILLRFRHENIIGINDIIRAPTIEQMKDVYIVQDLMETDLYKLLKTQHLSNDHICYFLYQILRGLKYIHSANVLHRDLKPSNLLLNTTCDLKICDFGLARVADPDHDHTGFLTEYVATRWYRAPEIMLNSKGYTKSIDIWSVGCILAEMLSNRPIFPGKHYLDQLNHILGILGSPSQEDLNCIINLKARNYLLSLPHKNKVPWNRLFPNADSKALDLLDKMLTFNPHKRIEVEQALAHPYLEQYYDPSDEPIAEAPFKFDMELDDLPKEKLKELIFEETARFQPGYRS

`CCNc1n[nH]c2cc(NC(=O)N[C@H](CO)c3ccccc3)ncc12` [Example 67, 1-[3-(ethylamino)-1H-pyrazolo[4,3-c]pyridin-6-yl]-3-[(1S)-2-hydroxy-1-phenylethyl]urea] gave an IC50 [1] of 0.7 nM.

`COC[C@@H](C)NC(=O)Nc1cc2[nH]nc(N3CCOCC3)c2cn1` [Example 11, 1-[(1R)-2-methoxy-1-methylethyl]-3-(3-morpholin-4-yl-1H-pyrazolo[4,3-c]pyridin-6-yl)urea] was tested, and the IC50 [2] was 30 nM.

`CC(CNC(=O)Nc1cc2[nH]nc(N)c2cn1)c1ccccc1` (stereo not drawn) [Example 254, 1-(3-amino-1H-pyrazolo[4,3-c]pyridin-6-yl)-3-(2-phenyl-propyl)urea] was tested, and the IC50 [1] was 57.7 nM.

`COC[C@@H](NC(=O)Nc1cc2[nH]nc(N3CCOCC3)c2cn1)c1ccccc1` [Example 30, 1-[(1S)-2-methoxy-1-phenylethyl]-3-(3-morpholin-4-yl-1H-pyrazolo[4,3-c]pyridin-6-yl)urea] gave an IC50 [2] of 0.4 nM.

`CCNc1n[nH]c2cc(NC(=O)NCc3c(F)cccc3OC)ncc12` [Example 242, 1-[3-(ethylamino)-1H-pyrazolo[4,3-c]pyridin-6-yl]-3-(2-fluoro-6-methoxybenzyl)-urea] was tested, and the IC50 [1] was 2.4 nM.

`CCNc1n[nH]c2c(C(F)(F)F)c(NC(=O)N[C@H](C)c3ccccc3)ncc12` [Example 135, (R)-1-(3-(ethylamino)-7-(trifluoromethyl)-1H-pyrazolo[4,3-c]pyridin-6-yl)-3-(1-phenylethyl)urea] was tested, and the IC50 [1] was 382 nM.

For `C[C@@H](NC(=O)Nc1cc2[nH]nc(NC(=O)C3CCCC3)c2cn1)c1ccccc1` [Example 205, N-[6-({[(1R)-1-phenylethyl]-carbamoyl}amino)-1H-pyrazolo[4,3-c]pyridin-3-yl]-cyclopentane-carboxamide], the IC50 [1] was 1.2 nM.

With `C[C@@H](NC(=O)Nc1cc2[nH]nc(NC3CCNCC3)c2cn1)c1ccccc1` [Example 162, 1-[(1R)-1-phenylethyl]-3-[3-(piperidin-4-ylamino)-1H-pyrazolo[4,3-c]-pyridin-6-yl]urea] the IC50 [1] was 165 nM.

Molecule `C[C@@H](NC(=O)Nc1cc2[nH]nc(N[C@@H]3CCOC3)c2cn1)c1ccccc1` [Example 74, 1-[(1R)-1-phenylethyl]-3-{3-[(3R)-tetrahydro-furan-3-ylamino]-1H-pyrazolo[4,3-c]-pyridin-6-yl}urea] has an IC50 [1] of 1.7 nM.

Work on `CC(=O)Nc1n[nH]c2cc(NC(=O)N[C@H](C)c3ccccc3)ncc12` [Example 47, (R)—N-(6-(3-(1-Phenylethyl)ureido)-1H-pyrazolo[4,3-c]pyridin-3-yl)acetamide] yielded an IC50 [2] of 0.66 nM.

`C[C@@H]1CN(c2n[nH]c3cc(NC(=O)N[C@@H](c4ccccc4)C(C)(C)O)ncc23)C[C@H](C)O1` [Example 436, 1-{3-[(2R,6S)-2,6-dimethylmorpholin-4-yl]-1H-pyrazolo[4,3-c]-pyridin-6-yl}-3-[(1S)-2-hydroxy-2-methyl-1-phenylpropyl]urea] was tested, and the IC50 [1] was 0.8 nM.

For `C[C@@H](NC(=O)Nc1cc2[nH]nc(N3CCC(O)CC3)c2cn1)c1ccccc1` [Example 409, 1-[3-(4-hydroxypiperidin-1-yl)-1H-pyrazolo[4,3-c]-pyridin-6-yl]-3-[(1R)-1-phenylethyl]urea], the IC50 [1] was 2.4 nM.

Work on `Cc1nc(NC(=O)N[C@H](C)c2ccccc2)cc2[nH]nc(N3CCC[C@H]3C(=O)O)c12` [Example 332, 1-[4-methyl-6-({[(1R)-1-phenyl-ethyl]carbamoyl}-amino)-1H-pyrazolo[4,3-c]-pyridin-3-yl]proline] yielded an IC50 [1] of 74.7 nM.

`CC(C)OC(=O)Nc1n[nH]c2cc(NC(=O)N[C@H](C)c3ccc(F)cc3)ncc12` [Example 398, 1-methylethyl [6-({[(1R)-1-(4-fluorophenyl)ethyl]carbamoyl}amino)-1H-pyrazolo[4,3-c]pyridin-3-yl]-carbamate] was tested, and the IC50 [1] was 52.5 nM.

`COC(=O)N[C@H](C(=O)Nc1n[nH]c2cc(NC(=O)N[C@H](C)c3ccc(F)cc3)ncc12)C1CCOCC1` [Example 65, methyl [(1S)-2-{[6-({[(1R)-1-(4-fluoro-phenyl)ethyl]carbamoyl}-amino)-1H-pyrazolo[4,3-c]-pyridin-3-yl]amino}-2-oxo-1-(tetrahydro-2H-pyran-4-yl)-ethyl]carbamate] showed an IC50 [1] of 365 nM.

With `C[C@@H](NC(=O)Nc1cc2[nH]nc(N3CCOCC3)c2cn1)c1ccc(F)cc1` [Example 31, 1-[(1R)-1-(4-fluorophenyl)ethyl]-3-(3-morpholin-4-yl-1H-pyrazolo[4,3-c]pyridin-6-yl)urea] the IC50 [2] was 0.4 nM.

Molecule `COC(=O)Nc1n[nH]c2cc(NC(=O)N[C@@H](c3ccc(F)cc3)C3(O)CCC3)ncc12` [Example 386, methyl [6-({[(S)-(4-fluorophenyl)(1-hydroxycyclobutyl)methyl]carbamoyl}amino)-1H-pyrazolo[4,3-c]-pyridin-3-yl]-carbamate] has an IC50 [1] of 0.4 nM.

`C[C@@H](NC(=O)Nc1cc2[nH]nc(NC(=O)Oc3ccccc3)c2cn1)c1ccccc1` [Example 222, phenyl[6-({[(1R)-1-phenylethyl]-carbamoyl}amino)-1H-pyrazolo[4,3-c]pyridin-3-yl]-carbamate] was tested, and the IC50 [1] was 3.6 nM.

`COC(=O)Nc1n[nH]c2cc(NC(=O)N[C@H](C)c3ccccc3)ncc12` [Example 220, (R)-methyl (6-(3-(1-phenylethyl)ureido)-1H-pyrazolo[4,3-c]pyridin-3-yl)carbamate] showed an IC50 [1] of 354 nM.

`C[C@@H](NC(=O)Nc1cc2[nH]nc(NCC3CCCOC3)c2cn1)c1ccccc1` (stereo partly drawn) [Example 167, 1-[(1R)-1-phenylethyl]-3-{3-[(tetrahydro-2H-pyran-3-yl-methyl)amino]-1H-pyrazolo[4,3-c]pyridin-6-yl}urea] was tested, and the IC50 [1] was 4.2 nM.

With `C[C@@H](NC(=O)Nc1cc2[nH]nc(N)c2cn1)C1CCCCC1` [Example 255, 1-(3-amino-1H-pyrazolo[4,3-c]pyridin-6-yl)-3-[(1R)-1-cyclohexyl-ethyl]urea] the IC50 [1] was 18.1 nM.

`CCNc1n[nH]c2cc(NC(=O)N[C@@H]3CCOc4ccccc43)ncc12` [Example 234, 1-[(4R)-3,4-dihydro-2H-chromen-4-yl]-3-[3-(ethylamino)-1H-pyrazolo[4,3-c]pyridin-6-yl]urea] was tested, and the IC50 [1] was 52 nM.

For `CCNC(=O)Nc1n[nH]c2cc(NC(=O)N[C@H](C)c3ccccc3)ncc12` [Example 313, (R)-1-(3-(3-ethylureido)-1H-pyrazolo[4,3-c]pyridin-6-yl)-3-(1-phenylethyl)urea], the IC50 [1] was 5.6 nM.

In the case of `C[C@@H](NC(=O)Nc1cc2[nH]nc(N3CCc4ncsc4C3)c2cn1)c1ccccc1` [Example 123, 1-[3-(6,7-dihydro[1,3]thiazolo-[5,4-c]pyridin-5(4H)-yl)-1H-pyrazolo[4,3-c]pyridin-6-yl]-3-[(1R)-1-phenylethyl]urea], the IC50 [1] is reported as 0.4 nM.

`COC[C@@H](NC(=O)Nc1cc2[nH]nc(NC3COC3)c2cn1)c1ccccc1` [Example 198, 1-[(1S)-2-methoxy-1-phenylethyl]-3-[3-(oxetan-3-yl-amino)-1H-pyrazolo[4,3-c]-pyridin-6-yl]urea] gave an IC50 [1] of 0.5 nM.

`COC[C@@H](NC(=O)Nc1cc2[nH]nc(Nc3ccccc3OC)c2cn1)c1ccccc1` [Example 122, 1-{3-[(2-methoxyphenyl)-amino]-1H-pyrazolo[4,3-c]pyridin-6-yl}-3-[(1S)-2-methoxy-1-phenylethyl]urea] was tested, and the IC50 [1] was 8.4 nM.

Work on `CC(C)(O)[C@@H](NC(=O)Nc1cc2[nH]nc(N)c2cn1)c1ccc(F)cc1` [Example 443, 1-(3-amino-1H-pyrazolo[4,3-c]-pyridin-6-yl)-3-[(1S)-1-(4-fluorophenyl)-2-hydroxy-2-methylpropyl]urea] yielded an IC50 [1] of 0.7 nM.

`CCNc1n[nH]c2cc(NC(=O)N[C@@H](c3ccccc3)[C@H]3CCCO3)ncc12` [Example 149, 1-[3-(ethylamino)-1H-pyrazolo[4,3-c]pyridin-6-yl]-3-{(S)-phenyl[(2R)-tetrahydrofuran-2-yl]methyl}urea] showed an IC50 [1] of 0.6 nM.

Molecule `C[C@@H](NC(=O)Nc1cc2[nH]nc(N)c2c(CO)n1)c1ccccc1` [Example 68, (R)-1-(3-amino-4-(hydroxymethyl)-1H-pyrazolo[4,3-c]pyridin-6-yl)-3-(1-phenylethyl)urea] has an IC50 [1] of 0.5 nM.

For `C[C@@H](NC(=O)Nc1cc2[nH]nc(NC3=CC(=O)CC3)c2cn1)c1ccccc1` [Example 73, (R)-1-(3-((3-oxocyclopent-1-en-1-yl)amino)-1H-pyrazolo[4,3-c]pyridin-6-yl)-3-(1-phenylethyl)urea], the IC50 [1] was 39.2 nM.

With `C[C@@H](NC(=O)Nc1cc2[nH]nc(NC3CCCCC3)c2cn1)c1ccccc1` [Example 187, 1-[3-(cyclohexyl-amino)-1H-pyrazolo[4,3-c]pyridin-6-yl]-3-[(1R)-1-phenylethyl]urea] the IC50 [1] was 6.8 nM.

`C[C@@H](NC(=O)Nc1cc2[nH]nc(NC(=O)OC(C)(C)C)c2cn1)c1ccccc1` [Example 217, tert-butyl [6-({[(1R)-1-phenylethyl}-carbamoyl}amino)-1H-pyrazolo[4,3-c]pyridin-3-yl}-carbamate] showed an IC50 [1] of 47.7 nM.

`CCNc1n[nH]c2c(F)c(NC(=O)N[C@H](C)c3ccccc3)ncc12` [Example 57, (R)-1-(3-(Ethylamino)-7-fluoro-1H-pyrazolo[4,3-c]pyridin-6-yl)-3-(1-phenylethyl)urea] was tested, and the IC50 [2] was 3.05 nM.

`CC(CS(C)(=O)=O)Nc1n[nH]c2cc(NC(=O)N[C@H](C)c3ccccc3)ncc12` (stereo partly drawn) [Example 192, 1-(3-{[1-methyl-2-(methylsulfonyl)-ethyl]amino}-1H-pyrazolo[4,3-c]-pyridin-6-yl)-3-[(1R)-1-phenylethyl]urea] gave an IC50 [1] of 79.8 nM.

With `COC[C@H](NC(=O)Nc1cc2[nH]nc(N3CCOCC3)c2cn1)c1ccc(F)cc1` [Example 339, (R)-1-(1-(4-fluorophenyl)-2-methoxyethyl)-3-(3-morpholino-1H-pyrazolo[4,3-c]-pyridin-6-yl)urea] the IC50 [1] was 0.4 nM.

`CCNc1n[nH]c2cc(NC(=O)N[C@H](C)c3ccc(Cl)cc3)ncc12` [Example 249, 1-[(1R)-1-(4-chlorophenyl)ethyl]-3-[3-(ethylamino)-1H-pyrazolo[4,3-c]pyridin-6-yl]urea] showed an IC50 [1] of 12 nM.
